{"source": "patent US20160053026A1", "about": "“METHODS FOR TREATING INFECTION BY HPV” (STC.UNM, priority 2011, published 2016)", "key": {"[1]": {"tested_on": "EGFR", "experiment": "Immunoblot for p-EGFR after EGF stimulation in HPV[+] and HPV[−] keratinocytes", "format": "cell-based, human", "settings": "cetuximab 100 μg/mL or PD98059 25 μM; 10 ng/mL EGF in SFM, 5 or 15 minutes; SG3 (HPV16[+]) and NIKS (HPV[−]) cells", "experimental": "(§1) FIG. 5. […] Mock=No EGF. Cell lysates were harvested and subjected to SDS-PAGE and immunoblot for p-EGFR, total EGFR, p-ERK1/2 and GAPDH, a loading control.\n(§2) Western blot was performed (FIG. 5) and cell viability determined with MTT assay and clonogenic assays performed as described (FIG. 7) (Meira et al., 2009, Euro J Cancer 45:1265-1273)."}, "[2]": {"tested_on": "p-ERK1/2", "experiment": "Immunoblot for p-ERK1/2 (MAPK signaling) after EGF stimulation in HPV[+] and HPV[−] keratinocytes", "format": "cell-based, human", "settings": "cetuximab 100 μg/mL or PD98059 25 μM; 10 ng/mL EGF in SFM, 5 or 15 minutes; SG3 (HPV16[+]) and NIKS (HPV[−]) cells", "experimental": "as §1, §2"}, "[3]": {"tested_on": "HPV[+] human keratinocytes", "experiment": "MTT cell viability assay, HPV[+] cells", "format": "cell-based", "settings": "cetuximab 50, 100, 200 μg/mL; PD98059 12.5, 25, 50 μM; MTT after 72 hours (seven days)", "experimental": "(§3) FIG. 7. […] The boxes indicate the same concentrations used in the FIG. 3 and FIG. 5. MTT assays were performed to assess cell viability. Error bars represent SEM (N=3).\nas §2\n(§4) The proliferative capacity of MAPK inhibitor-treated cells compared to untreated cells was measured by MTT assay after 72 hours to determine the surviving fractions (FIG. 7)."}, "[4]": {"tested_on": "HPV[−] human keratinocytes", "experiment": "MTT cell viability assay, HPV[−] cells", "format": "cell-based", "settings": "cetuximab 50, 100, 200 μg/mL; PD98059 12.5, 25, 50 μM; MTT after 72 hours (seven days)", "experimental": "as §3, §2, §4"}, "[5]": {"tested_on": "HPV16 E1^E4 early mRNA", "experiment": "RT-qPCR of HPV16 E1^E4 early mRNA in HPV[+] HFK cells", "format": "cell-based", "settings": "cetuximab 100 μg/mL or PD98059 25 μM, 24-96 hours", "protocol": "HPV16 E1̂E4 early mRNA levels in response to treatment with EGFR or MAPK inhibitors. […] Total RNA harvested at indicated time points was subjected to RT and then to qPCR for β-actin and HPV16 E1̂E4 quantification. […] Data are the result of two separate experiments.\nTotal RNA harvested at 24 hours, 48 hours, 72 hours, or 96 hours was subjected to RT and then to qPCR for β-actin and HPV16 E1̂E4 quantification.\n(§5) TURBO DNA-free Kit (Ambion) to remove co-purifying viral and cellular DNA. Reverse transcription (RT) of total RNAs (0.2-0.5 μg) was performed using random hexamer primers and ABI reagents (Applied Biosystems). For quantitative PCR (qPCR), 2 μl of each cDNA or total DNA was analyzed in triplicate using the SYBR Green I kit on the iCycler (Bio-Rad Laboratories, Inc., Hercules, Calif.)."}, "[6]": {"tested_on": "HPV16 viral genome", "experiment": "qPCR of HPV16 LCR (viral genome number) in HPV[+] HFK cells", "format": "cell-based", "settings": "cetuximab 100 μg/mL or PD98059 25 μM, two to six days after treatment", "description": "Response of HPV16 viral genome number to EGFR or MAPK Inhibitors. […] Total DNA harvested at indicated time points was subjected to qPCR for HPV16 LCR quantification. […] Data are the result of 2 separate experiments. (* p<0.05, ** p<0.01).\nTotal DNA harvested at two days, three days, four days, five days, or six days after treatment was subjected to qPCR (SYBR Green I kit on the BioRad iCycler) for HPV16 LCR quantification. […] Total RNAs were extracted from cells using TRIzol (Invitrogen), and processed with the\nas §5"}}, "data": [{"smiles": "COc1cccc(-c2cc(=O)c3ccccc3o2)c1N", "note": "[PD98059]", "values": [{"measurement": "EGFR activation (p-EGFR)", "setting": "[1]", "result": "did not affect EGFR activation"}, {"measurement": "downstream / MAPK signaling (p-ERK1/2)", "setting": "[2]", "result": "blocked MAPK signaling"}, {"measurement": "viability of HPV[+] cells (MTT)", "setting": "[3]", "result": "dose-dependent decrease in viability"}, {"measurement": "viability of HPV[−] cells (MTT)", "setting": "[4]", "result": "dose-dependent decrease in viability"}, {"measurement": "HPV16 E1^E4 transcript levels", "setting": "[5]", "result": "decrease is statistically significant after 48 hours of treatment"}, {"measurement": "HPV16 genome levels (LCR qPCR) compared to mock treated", "setting": "[6]", "result": "statistically significant decrease in HPV16 genome levels"}]}]}
